Assay results published in patent US20190093170A1, “USE OF TRANSLATIONAL PROFILING TO IDENTIFY TARGET MOLECULES FOR THERAPEUTIC TREATMENT” (THE REGENTS OF THE UNIVERSITY OF CALIFORNIA, priority 2013, published 2019).

System: PC3 human prostate cancer cells
Experiment: RNA-seq mRNA abundance (part of ribosome profiling experiment);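 note: average poly(A) RNA-seq read density per codon over the coding sequence, excluding 15 initial and 5 final codons, mapped to hg19 transcripts, taken as mRNA abundance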
Assay type: cell-based
Conditions: for Rapamycin mRNA: 3-hour treatment with rapamycin (50 nM) in PC3 cells
Method: Cells were subsequently treated with cycloheximide (100 μg ml^−1; Sigma) and detergent lysis was performed in the dish. The lysate was treated with DNase and clarified, and a sample was taken for RNA-seq analysis. Lysates were subjected to ribosome footprinting by nuclease treatment. Ribosome-protected fragments were purified, and deep sequencing libraries were generated from these fragments, as well as from poly(A) mRNA purified from non-nuclease-treated lysates. These libraries were analyzed by sequencing on an Illumina GAII.
Ribosome footprint and RNA-seq sequencing reads were aligned against a library of transcripts from the UCSC Known Genes database GRCh37/hg19. The first 25 nucleotides of each read were aligned using Bowtie and this initial alignment was then extended to encompass the full fragment-derived portion of the sequencing read while excluding the linker sequence. Read density profiles were then constructed for the canonical transcript of each gene, using only reads with 0 or 1 total mismatches between the read sequence and the reference sequence, comprised of the transcript fragment followed by the linker sequence. Footprint reads were assigned to an A site nucleotide at position +15 to +17 of the alignment, based on the total fragment length; mRNA reads were assigned to the first nucleotide of the alignment. The average read density per codon was then computed for the coding sequence of each transcript, excluding the first 15 and last 5 codons, which can display atypical ribosome accumulation.
Average read density was used as a measure of mRNA abundance (RNA-seq reads) and of protein synthesis (ribosome profiling reads). For most analyses, genes were filtered to require at least 256 reads in the relevant RNA-seq samples. Translational efficiency was computed as the ratio of ribosome footprint read density to RNA-seq read density, scaled to normalize the translational efficiency of the median gene to 1.0 after excluding regulated genes (log 2 fold-change+1.5 after normalizing for the all-gene median). Changes in protein synthesis, mRNA abundance and translational efficiency were similarly computed as the ratio of read densities between different samples, normalized to give the median gene a ratio of 1.0. This normalization corrects for differences in the absolute number of sequencing reads obtained for different libraries.

CO[C@H]1C[C@@H]2CC[C@@H](C)[C@@](O)(O2)C(=O)C(=O)N2CCCC[C@H]2C(=O)O[C@H]([C@H](C)C[C@@H]2CC[C@@H](O)[C@H](OC)C2)CC(=O)[C@H](C)/C=C(\C)[C@@H](O)[C@@H](OC)C(=O)[C@H](C)C[C@H](C)/C=C/C=C/C=C/1C [Rapamycin, rapamycin]
Rapamycin mRNA (gene ACD): −0.96
mRNA (gene ACTG1): 0.02
mRNA (gene AGRN): 0.01
mRNA (gene ALKBH7): 0.06
mRNA (gene AP2A1): 0.09
mRNA (gene ARD1A): −0.04
mRNA (gene ATP5G2): 0.29
Rapamycin mRNA (gene C17orf28): −0.44
mRNA (gene C21orf66): −0.30
Rapamycin mRNA (gene CCNA1): −0.51
mRNA (gene CCNI): 0.29
mRNA (gene CD44): 0.34
mRNA (gene CIRBP): 0.14
mRNA (gene CLPTM1): 0.07
mRNA (gene COL6A2): −0.08
mRNA (gene CRTAP): 0.29
Rapamycin mRNA (gene DDX51): −0.24
Rapamycin mRNA (gene DGCR2): −0.66
mRNA (gene ECSIT): −0.04
Rapamycin mRNA (gene EEF1A1): 0.46
mRNA (gene EEF1A2): 0.03
mRNA (gene EEF1D): 0.18
mRNA (gene EEF1G): 0.21
mRNA (gene EEF2): 0.39
mRNA (gene EIF3H): 0.16
mRNA (gene EIF3L): 0.28
mRNA (gene EIF4B): 0.55
mRNA (gene EVPL): −0.08
mRNA (gene FAM83H): −0.17
mRNA (gene FAM128B): 0.06
mRNA (gene FASN): −0.37
mRNA (gene GLTSCR2): 0.31
mRNA (gene GNB2L1): 0.19
Rapamycin mRNA (gene GTPBP3): −0.73
mRNA (gene HNRNPA1): 0.18
mRNA (gene HSPA8): −0.21
mRNA (gene IMPDH2): 0.11
mRNA (gene LAMA5): −0.32
mRNA (gene LMF2): 0.22
Rapamycin mRNA (gene MAPK6): 0.13
Rapamycin mRNA (gene MAPKAPK2): −0.21
mRNA (gene MTA1): 0.00
mRNA (gene NCLN): −0.05
Rapamycin mRNA (gene NFATC21P): −0.16
Rapamycin mRNA (gene NR2F1): 0.05
mRNA (gene PABPC1): 0.35
mRNA (gene PABPC4): 0.24
mRNA (gene PACS1): 0.07
mRNA (gene PFDN5): 0.11
mRNA (gene PGLS): 0.03
mRNA (gene PGM1): 0.40
mRNA (gene PNKP): −0.24
Rapamycin mRNA (gene PRKD3): −0.22
mRNA (gene PTGES2): −0.19
mRNA (gene RABGGTB): −0.20
mRNA (gene RPL3): 0.18
mRNA (gene RPL4): 0.22
mRNA (gene RPL7): 0.15
mRNA (gene RPL7A): 0.17
mRNA (gene RPL9): 0.16
mRNA (gene RPL10): 0.09
mRNA (gene RPL10A): 0.16
mRNA (gene RPL11): 0.09
mRNA (gene RPL12): 0.07
mRNA (gene RPL13): 0.14
mRNA (gene RPL13A): 0.15
mRNA (gene RPL15): 0.11
mRNA (gene RPL18A): 0.17
mRNA (gene RPL19): 0.14
mRNA (gene RPL21): 0.14
mRNA (gene RPL22): 0.08
mRNA (gene RPL24): 0.11
mRNA (gene RPL26): 0.15
mRNA (gene RPL27): 0.05
mRNA (gene RPL27A): 0.06
mRNA (gene RPL28): 0.24
Rapamycin mRNA (gene RPL28): 0.64
mRNA (gene RPL31): −0.02
mRNA (gene RPL32): 0.22
mRNA (gene RPL34): 0.11
mRNA (gene RPL36A): 0.13
mRNA (gene RPL37A): 0.08
mRNA (gene RPL39): 0.17
Rapamycin mRNA (gene RPL39): 0.30
mRNA (gene RPL41): 0.04
mRNA (gene RPLP0): 0.15
mRNA (gene RPLP1): 0.28
mRNA (gene RPLP2): 0.26
mRNA (gene RPS2): 0.07
mRNA (gene RPS3): 0.22
mRNA (gene RPS3A): 0.22
mRNA (gene RPS4X): 0.18
mRNA (gene RPS5): 0.14
mRNA (gene RPS7): 0.11
mRNA (gene RPS9): 0.10
mRNA (gene RPS12): 0.11
mRNA (gene RPS13): 0.07
mRNA (gene RPS14): 0.10
mRNA (gene RPS15): −0.01
mRNA (gene RPS15A): 0.07
mRNA (gene RPS19): 0.15
mRNA (gene RPS20): 0.18
Rapamycin mRNA (gene RPS20): 0.14
mRNA (gene RPS21): −0.01
mRNA (gene RPS25): 0.04
mRNA (gene RPS27): 0.10
Rapamycin mRNA (gene RPS27): 0.07
mRNA (gene RPS27A): 0.16
mRNA (gene RPS28): 0.01
Rapamycin mRNA (gene SDCCAG10): −0.19
mRNA (gene SLC19A1): -0.36
mRNA (gene TKT): 0.02
mRNA (gene TPT1): 0.24
mRNA (gene TSC2): −0.15
mRNA (gene UBA52): 0.12
Rapamycin mRNA (gene UBTD2): 0.19
Rapamycin mRNA (gene UCHL5): −0.08
Rapamycin mRNA (gene VHL): −0.23
mRNA (gene VIM): 0.36
mRNA (gene YB1): 0.11
